From the text in the data set: In accordance with yet another aspect of the present invention, there is provided a method for determining the solubility of said drugs, wherein the method comprises incremental addition of said drugs taken from stock to said solubility enhancer, shaking the resultant in an ultrasonic bath to obtain clear solution and determining the solubility.
The solutions of Isotretinoin were made by incremental addition technique, i.e. by adding portions of the drug from pre-weighed stock (Isotretinoin) to known volume of the alkanamide solution and shaking in an ultrasonic bath till the solution was clear. Thereafter the second weight was recorded & solubility was determined.
(§1) Thereafter the second weight was recorded & solubility was determined.
as §1

On to `CC1=C(/C=C/C(C)=C/C=C/C(C)=C\C(=O)O)C(C)(C)CCC1` [Isotretinoin], for which the “amount of drug solubilized in 1 ml of Hexanamide” value is 206 mg, the “amount of drug solubilized in 1 ml of Octanamide” value is 139.2 mg, the “solubility in Hexanamide” value is 20.6 % w/v and the “solubility in Octanamide” value came to 13.92 % w/v.
